3 molecules from ChEMBL document CHEMBL1201862, “PubChem BioAssay data set” (2004) can be followed below.

Active and inactive are the calls of the source. Where only a bound is given, the exact number is not on record here.

In experiment [1] the target is Sphingosine 1-phosphate receptor 1 (Homo sapiens, UniProt P21453). Kind of experiment: Fluorescence-based counterscreen assay for S1P4 agonists: Cell-based dose response high throughput screening assay to identify agonists of the Sphingosine 1-Phosphate Receptor 1 (S1P1). [Related pubchem assays (depositor defined):AID1509, AID1523, AID1801, AID463107, AID463118, AID463119, AID463122, AID463123, AID463129, AID463225, AID504400, AID504460]. Format: functional. A general note: A counterscreen serves to expose hits that act by an unwanted route or on another target.

For experiment [2], the target named is T1, Sphingosine 1-phosphate receptor 4 (Homo sapiens, UniProt O95977).
T1 sequence (O95977 whole entry): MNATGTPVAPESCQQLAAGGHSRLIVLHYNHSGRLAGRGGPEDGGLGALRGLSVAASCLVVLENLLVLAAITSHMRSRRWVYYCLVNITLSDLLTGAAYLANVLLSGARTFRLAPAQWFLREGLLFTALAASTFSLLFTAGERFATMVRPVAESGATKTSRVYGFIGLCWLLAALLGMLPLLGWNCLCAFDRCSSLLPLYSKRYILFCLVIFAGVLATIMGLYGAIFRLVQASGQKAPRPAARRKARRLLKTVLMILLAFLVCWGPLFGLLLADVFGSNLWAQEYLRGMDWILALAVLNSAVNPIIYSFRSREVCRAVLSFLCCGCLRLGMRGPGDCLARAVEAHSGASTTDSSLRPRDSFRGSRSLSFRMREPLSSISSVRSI
Kind of experiment: Fluorescence dose response cell-based high throughput screening assay for agonists of the Sphingosine 1-Phosphate Receptor 4 (S1P4). [Related pubchem assays: 1509 (Primary screen.), 1523 (Confirmation screen in triplicates.)]. Format: functional.

Experiment [3] deals with T2, G-protein coupled receptor 55 (Homo sapiens, UniProt Q9Y2T6). Kind of experiment: GPR55 agonists via beta-arrestin recruitment, primary screen, imaging, U2OS cells, beta-arrestin-GFP redistribution (AID 1961). It counts as functional. On the technique in general: Activated receptors often draw arrestin, which recruitment assays turn into a signal.
Experiment [4] addresses T3, Cannabinoid receptor 2 (Homo sapiens, UniProt P34972). Kind of experiment: SAR analysis of antagonists of the Cannabinoid Receptor 2 using an Image-Based Assay - Set 2. [Related pubchem assays (depositor defined):AID1961, AID1965]. Format: functional.
For experiment [5], the target named is T3, Cannabinoid receptor 2. Kind of experiment: SAR analysis of agonists of the Cannabinoid Receptor 2 using an Image-Based Assay - Set 2. [Related pubchem assays (depositor defined):AID1961, AID1965]. It counts as functional.
The target in experiment [6] is T4, Tyrosine-protein phosphatase non-receptor type 7 (Homo sapiens, UniProt P35236).
T4 sequence (P35236 whole entry): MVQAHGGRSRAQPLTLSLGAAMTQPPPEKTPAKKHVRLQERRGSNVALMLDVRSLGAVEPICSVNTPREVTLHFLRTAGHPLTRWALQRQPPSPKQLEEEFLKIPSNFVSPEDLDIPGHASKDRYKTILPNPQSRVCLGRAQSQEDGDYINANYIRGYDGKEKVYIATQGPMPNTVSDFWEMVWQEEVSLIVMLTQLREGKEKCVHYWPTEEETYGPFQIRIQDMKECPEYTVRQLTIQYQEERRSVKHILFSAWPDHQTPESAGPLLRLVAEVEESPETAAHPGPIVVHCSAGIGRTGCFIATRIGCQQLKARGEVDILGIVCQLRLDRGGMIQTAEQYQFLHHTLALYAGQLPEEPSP
As to the kind of experiment: SAR analysis of chemical inhibitors of HePTP using a Fluorescent assay - Set 2. [Related pubchem assays (depositor defined):AID1059, AID1077, AID1661, AID2085, AID521]. Format: functional.

Experiment [7] deals with T2, G-protein coupled receptor 55. As to the kind of experiment: SAR analysis of selective Agonists of GPR55 using an Image-Based Assay. [Related pubchem assays (depositor defined):AID1961, AID1965]. Format: functional.
For another experiment, the target named is Cannabinoid receptor 1 (Homo sapiens, UniProt P21554). As to the kind of experiment: SAR analysis of antagonists of the Cannabinoid Receptor 1 using an Image-Based Assay. [Related pubchem assays (depositor defined):AID1961, AID1965]. Format: functional.
Experiment [8] addresses Dual specificity protein phosphatase 3 (Homo sapiens, UniProt P51452). Kind of experiment: SAR VHR1 Fluorescent Assay for In Vitro dose response studies Set 2. [Related pubchem assays (depositor defined):AID1654, AID1661, AID1878]. Format: functional.
The target of experiment [9] is E3 ubiquitin-protein ligase XIAP (Homo sapiens, UniProt P98170). As to the kind of experiment: Counter Screen using XIAP-Bir3 for Chemical Antagonists of Bir1/2 domains of IAP-family anti-apoptotic proteins. [Related pubchem assays (depositor defined):AID1018, AID1449, AID1514, AID1638, AID1749, AID1750, AID488957, AID488963].
Experiment [10] can be described thus: fluorescence interference artefacts, compound only, dose response, artefact control for cardiac thin filament activator project, biochemical, no RTF in test wells (AID 504697).
In another experiment the target is Troponin, cardiac muscle (Homo sapiens, UniProt P19429+P45379+P63316). Kind of experiment: Fluorescence-based biochemical high throughput dose response assay for activators of the calcium sensitivity of cardiac Regulated Thin Filaments (RTF). [Related pubchem assays (depositor defined):AID493008, AID493018, AID504382, AID504383]. Format: protein-complex assay.

The target in experiment [11] is T5, Long-chain-fatty-acid--AMP ligase FadD28 (Mycobacterium tuberculosis, UniProt P9WQ59).
T5 sequence (P9WQ59 whole entry): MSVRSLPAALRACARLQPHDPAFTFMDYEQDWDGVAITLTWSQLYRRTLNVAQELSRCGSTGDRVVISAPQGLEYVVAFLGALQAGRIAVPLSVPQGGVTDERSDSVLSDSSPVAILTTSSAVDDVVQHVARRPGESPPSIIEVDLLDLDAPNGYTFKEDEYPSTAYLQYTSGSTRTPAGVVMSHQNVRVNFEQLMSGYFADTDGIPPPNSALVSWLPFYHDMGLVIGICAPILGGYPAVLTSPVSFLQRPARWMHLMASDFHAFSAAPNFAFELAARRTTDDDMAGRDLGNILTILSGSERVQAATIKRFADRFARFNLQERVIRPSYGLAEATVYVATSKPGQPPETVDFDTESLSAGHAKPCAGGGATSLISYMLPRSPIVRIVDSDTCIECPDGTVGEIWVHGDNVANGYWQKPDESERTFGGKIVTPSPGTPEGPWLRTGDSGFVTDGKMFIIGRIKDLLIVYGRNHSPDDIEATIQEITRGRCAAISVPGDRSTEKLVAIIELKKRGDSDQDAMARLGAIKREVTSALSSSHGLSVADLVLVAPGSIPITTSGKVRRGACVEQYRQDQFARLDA
Kind of experiment: Fluorescence polarization aasay to screen for inhibitors that compete for the binding of FadD28 to a bisubstrate Measured in Biochemical System Using Plate Reader - 2147-01_Inhibitor_Dose_CherryPick_Activity. Format: functional, Mycobacterium tuberculosis H37Rv.

T2 sequence (Q9Y2T6 whole entry): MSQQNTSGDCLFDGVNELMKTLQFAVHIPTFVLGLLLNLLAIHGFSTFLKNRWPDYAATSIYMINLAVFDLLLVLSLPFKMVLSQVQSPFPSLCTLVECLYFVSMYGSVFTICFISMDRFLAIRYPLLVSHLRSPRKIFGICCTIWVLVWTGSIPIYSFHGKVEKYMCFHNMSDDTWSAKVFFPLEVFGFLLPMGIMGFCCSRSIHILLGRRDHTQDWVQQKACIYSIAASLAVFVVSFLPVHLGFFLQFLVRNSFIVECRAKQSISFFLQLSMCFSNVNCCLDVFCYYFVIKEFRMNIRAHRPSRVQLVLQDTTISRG
T3 sequence (P34972 whole entry): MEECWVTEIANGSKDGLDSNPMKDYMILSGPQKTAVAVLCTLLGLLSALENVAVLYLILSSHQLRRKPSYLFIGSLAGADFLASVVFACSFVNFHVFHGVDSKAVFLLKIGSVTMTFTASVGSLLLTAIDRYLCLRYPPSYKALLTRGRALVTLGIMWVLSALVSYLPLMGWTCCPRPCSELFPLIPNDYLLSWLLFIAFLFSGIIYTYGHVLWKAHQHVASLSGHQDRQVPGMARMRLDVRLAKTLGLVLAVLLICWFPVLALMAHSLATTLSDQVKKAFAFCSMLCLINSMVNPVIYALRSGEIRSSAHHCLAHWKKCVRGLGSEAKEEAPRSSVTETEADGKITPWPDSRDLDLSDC
Sphingosine 1-phosphate receptor 1, sequence (P21453 whole entry): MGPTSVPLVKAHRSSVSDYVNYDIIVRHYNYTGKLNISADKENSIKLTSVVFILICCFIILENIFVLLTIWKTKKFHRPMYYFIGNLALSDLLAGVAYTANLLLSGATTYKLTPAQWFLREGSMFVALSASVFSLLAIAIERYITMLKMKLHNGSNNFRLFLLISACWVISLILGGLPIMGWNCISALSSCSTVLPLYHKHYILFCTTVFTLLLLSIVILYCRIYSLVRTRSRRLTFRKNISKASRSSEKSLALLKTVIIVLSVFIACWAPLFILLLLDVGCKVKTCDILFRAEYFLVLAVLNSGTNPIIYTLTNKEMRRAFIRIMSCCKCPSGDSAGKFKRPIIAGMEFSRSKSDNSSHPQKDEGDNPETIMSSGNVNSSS
E3 ubiquitin-protein ligase XIAP, sequence (P98170 whole entry): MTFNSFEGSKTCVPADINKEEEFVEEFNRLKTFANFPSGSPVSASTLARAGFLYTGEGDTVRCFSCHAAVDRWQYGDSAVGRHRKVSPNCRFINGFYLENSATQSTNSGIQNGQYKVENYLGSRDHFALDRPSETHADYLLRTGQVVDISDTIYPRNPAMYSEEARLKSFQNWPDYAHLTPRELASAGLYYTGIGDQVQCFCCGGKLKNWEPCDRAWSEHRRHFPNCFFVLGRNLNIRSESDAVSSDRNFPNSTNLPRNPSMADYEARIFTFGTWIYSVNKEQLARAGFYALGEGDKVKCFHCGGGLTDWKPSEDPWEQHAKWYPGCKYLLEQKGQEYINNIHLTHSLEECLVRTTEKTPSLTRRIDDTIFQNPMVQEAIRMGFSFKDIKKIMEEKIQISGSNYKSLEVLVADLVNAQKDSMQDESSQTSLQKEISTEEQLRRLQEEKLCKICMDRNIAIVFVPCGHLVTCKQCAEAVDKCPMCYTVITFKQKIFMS
Dual specificity protein phosphatase 3, sequence (P51452 whole entry): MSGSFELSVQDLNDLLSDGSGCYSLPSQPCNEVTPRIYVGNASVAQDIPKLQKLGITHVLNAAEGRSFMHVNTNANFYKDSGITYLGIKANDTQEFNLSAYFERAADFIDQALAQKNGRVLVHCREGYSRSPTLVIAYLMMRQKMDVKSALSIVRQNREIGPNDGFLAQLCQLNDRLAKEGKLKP
Cannabinoid receptor 1, sequence (P21554 whole entry): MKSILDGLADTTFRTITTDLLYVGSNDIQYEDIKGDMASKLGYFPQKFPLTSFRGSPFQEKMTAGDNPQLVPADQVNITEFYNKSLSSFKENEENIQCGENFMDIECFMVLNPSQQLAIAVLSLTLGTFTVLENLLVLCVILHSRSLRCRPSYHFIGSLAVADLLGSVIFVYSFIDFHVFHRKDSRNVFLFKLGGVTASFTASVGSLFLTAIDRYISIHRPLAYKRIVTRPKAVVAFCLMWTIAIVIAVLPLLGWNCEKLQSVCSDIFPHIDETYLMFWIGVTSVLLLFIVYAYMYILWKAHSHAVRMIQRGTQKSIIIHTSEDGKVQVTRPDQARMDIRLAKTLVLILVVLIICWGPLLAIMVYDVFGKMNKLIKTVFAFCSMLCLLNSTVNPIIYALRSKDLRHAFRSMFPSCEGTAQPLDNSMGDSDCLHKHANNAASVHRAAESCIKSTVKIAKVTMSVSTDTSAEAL

As to `O=C(NCc1ccccc1)c1nc[nH]c1C(=O)N[C@@H](Cc1ccccc1)C(=O)OCc1ccccc1`, the EC50 (commonly the concentration that produces a half-maximal response) in [1] is > 49.8 µM (inactive); in experiment [2], 90.2 µM (not active).
Turning to `COc1ccccc1/C=C/C(=O)NC(=S)Nc1ccc(S(=O)(=O)N(C)c2ccccc2)cc1`, the figures for the EC50 (in [3]; at Cannabinoid receptor 2 [5]; in experiment [7]) were < 0.5 µM (active), > 32 µM (inactive) and 0.114 µM (active), respectively. In addition, the IC50 (as a rule, the point on the concentration scale where inhibition reaches its midpoint) is > 32 µM (inactive) on Cannabinoid receptor 2 [4], > 100 µM (inactive) in experiment [6], > 32 µM (inactive) on Cannabinoid receptor 1 and > 100 µM (inactive) in [8].
As to `CCN1C(=O)C(=CNc2ccc(N3CCOCC3)cc2)C(=O)N(CC)C1=S`, the IC50 in experiment [9] is > 20 µM (inactive). Besides, the EC50 in experiment [10] was > 7.94 µM (active); at Troponin, cardiac muscle, 5.15 µM (active). Also, in experiment [11], the AC50 (commonly the concentration giving half of the maximal activity seen) is > 100 µM (inactive).
